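In this assay, cells in 96-well plates receive the compound at five concentrations for 48 hours. Endpoints are linearly interpolated between the surrounding concentrations. GI50: concentration for 50% inhibition of growth.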 Calls of active or inactive are those of the source. Rule as the data show it: active = GI50 up to about 1.1 µM and inactive = higher.
Tests used:
Assay in all cases: inhibition of tumour cell growth, NCI panel, 48 h
OVCAR-5 = system: OVCAR-5
KM12 = system: KM12
SR = system: SR
UACC-62 = system: UACC-62
SK-OV-3 = system: SK-OV-3
NCI-H460 = system: NCI-H460
IGROV-1 = system: IGROV-1
RXF 393 = system: RXF 393
HCT-116 = system: HCT-116
OVCAR-3 = system: OVCAR-3
SK-MEL-5 = system: SK-MEL-5
HCC 2998 = system: HCC 2998
PC-3 = system: PC-3
SN12C = system: SN12C
SNB-19 = system: SNB-19
Hs-578T = system: Hs-578T
OVCAR-4 = system: OVCAR-4
MDA-MB-435 = system: MDA-MB-435
EKVX = system: EKVX

Measured: GI50

CC(C)(C)N1NC1C1NN1C(C)(C)C (centres undefined)
inactive: OVCAR-5 > 100 µM | KM12 > 100 µM | SR > 100 µM | UACC-62 > 100 µM | SK-OV-3 > 100 µM | NCI-H460 > 100 µM | IGROV-1 > 100 µM | RXF 393 > 100 µM | HCT-116 > 100 µM | OVCAR-3 > 100 µM | SK-MEL-5 > 100 µM | HCC 2998 > 100 µM | PC-3 > 100 µM | SN12C > 100 µM | SNB-19 > 100 µM | Hs-578T > 100 µM | OVCAR-4 > 100 µM | MDA-MB-435 > 100 µM | EKVX > 100 µM

O=c1c2cc(Br)cc(Br)c2[nH]c(=S)n1-c1ccc(/N=N/c2ccc(O)c3cccnc23)cc1
inactive: OVCAR-5 74.5 µM | KM12 > 100 µM | SR 3.61 µM | SK-OV-3 > 100 µM | IGROV-1 11.2 µM | RXF 393 55.2 µM | HCT-116 26.2 µM | OVCAR-3 14 µM | SK-MEL-5 11.9 µM | PC-3 39.9 µM | SN12C 44.5 µM | SNB-19 19.7 µM | Hs-578T > 100 µM | OVCAR-4 57.9 µM | MDA-MB-435 35.4 µM | EKVX 38.6 µM

COc1cc(C=O)cc(/C=N/c2ccccn2)c1O
inactive: OVCAR-5 15.8 µM | KM12 24.5 µM | SR 2.18 µM | UACC-62 30 µM | SK-OV-3 4.98 µM | NCI-H460 19.5 µM | RXF 393 1.56 µM | HCT-116 35.4 µM | OVCAR-3 19.8 µM | SK-MEL-5 2.39 µM | HCC 2998 46.1 µM | PC-3 3.64 µM | SN12C 12.6 µM | SNB-19 17.4 µM | Hs-578T 4.63 µM | OVCAR-4 > 100 µM | MDA-MB-435 9.29 µM | EKVX 23.4 µM

Cn1c(=O)c2c3oc(=O)cc(O)c3c(=O)n3c4ccccc4n(c1=O)c23
inactive: OVCAR-5 52.5 µM | KM12 35.6 µM | SR 20.4 µM | UACC-62 35 µM | SK-OV-3 > 100 µM | NCI-H460 37.2 µM | IGROV-1 44.2 µM | RXF 393 38.8 µM | HCT-116 32.8 µM | OVCAR-3 24.6 µM | SK-MEL-5 28 µM | HCC 2998 42.6 µM | SN12C 34 µM | SNB-19 > 100 µM | OVCAR-4 36.5 µM | EKVX 57.3 µM

C/C(CC(=O)Nc1ccc(NC(=O)C/C(C)=N\NC(N)=O)cc1)=N/NC(N)=O
inactive: OVCAR-5 > 100 µM | KM12 > 100 µM | SR 38.5 µM | UACC-62 > 84.9 µM | SK-OV-3 > 100 µM | NCI-H460 > 62.4 µM | IGROV-1 > 100 µM | RXF 393 > 91.4 µM | HCT-116 > 68.9 µM | OVCAR-3 49.5 µM | SK-MEL-5 > 100 µM | HCC 2998 > 100 µM | SN12C > 100 µM | SNB-19 > 100 µM | OVCAR-4 96.2 µM | EKVX > 74.3 µM

O=[N+]([O-])C1C2C=CC(C2)[C@H]1c1ccccc1Cl (some centres undefined)
inactive: OVCAR-5 16.5 µM | KM12 > 100 µM | SR 47.9 µM | UACC-62 27.5 µM | SK-OV-3 > 31.6 µM | NCI-H460 > 100 µM | IGROV-1 > 31.6 µM | RXF 393 45.8 µM | HCT-116 > 89.9 µM | OVCAR-3 22 µM | SK-MEL-5 53.5 µM | HCC 2998 > 100 µM | SN12C > 100 µM | SNB-19 > 100 µM | OVCAR-4 > 10 µM | EKVX > 100 µM

CSC1=N/C(=C\c2ccco2)C(=O)N1CN1CCCCC1
inactive: OVCAR-5 > 100 µM | KM12 > 100 µM | SR > 100 µM | UACC-62 33.1 µM | SK-OV-3 > 100 µM | IGROV-1 89.9 µM | HCT-116 50.4 µM | OVCAR-3 > 100 µM | SK-MEL-5 55.1 µM | PC-3 > 100 µM | SN12C 65.3 µM | SNB-19 87.3 µM | Hs-578T > 100 µM | MDA-MB-435 > 100 µM | EKVX > 100 µM

c1ccc(-c2sc(-c3ccccc3)c3c2C(c2ccccc2)c2c(-c4ccccc4)sc(-c4ccccc4)c2C3c2ccccc2)cc1 (centres undefined)
inactive: OVCAR-5 > 100 µM | KM12 > 100 µM | SR > 100 µM | UACC-62 > 100 µM | SK-OV-3 > 100 µM | NCI-H460 > 100 µM | IGROV-1 > 100 µM | RXF 393 > 100 µM | HCT-116 > 100 µM | OVCAR-3 > 100 µM | SK-MEL-5 > 100 µM | HCC 2998 > 100 µM | SN12C > 100 µM | SNB-19 > 100 µM | OVCAR-4 > 100 µM | EKVX > 100 µM

O=c1cc(-c2ccncc2)[nH]c2cc3c(cc12)OCO3
inactive: OVCAR-5 > 100 µM | KM12 > 100 µM | UACC-62 > 100 µM | SK-OV-3 > 100 µM | NCI-H460 > 100 µM | IGROV-1 > 100 µM | RXF 393 > 100 µM | HCT-116 97.3 µM | OVCAR-3 > 100 µM | SK-MEL-5 > 100 µM | HCC 2998 > 100 µM | SN12C > 100 µM | SNB-19 > 100 µM | Hs-578T > 100 µM | OVCAR-4 > 100 µM | MDA-MB-435 > 100 µM | EKVX > 100 µM
